# Data reported in article PMC10916382, “Repurposing screen identifies novel candidates for broad-spectrum coronavirus antivirals and druggable host targets” (Antimicrobial Agents and Chemotherapy, 2024).
# Tests used:
# SARS-CoV-2 [1] = conditions: Calu-3 and Vero cells; cited from earlier work
# HCoV-229E [2] = tested on: HCoV-229E; parameters: method as in PMID 34446714; conditions: Huh-7.5 cells; cited from earlier work
# HCoV-229E [3] = test: Twelve-step dose titration against HCoV-229E infection on Huh-7.5/F-Luc/Cas9 cells; format: cell-based, Homo sapiens sapiens; conditions: n = 3
# Huh-7.5/F-Luc/Cas9 cells = conditions: twelve-step 1:3 dilutions, n = 3
# in vitro = conditions: human
# HCoV-229E [4] = test: microbe, parasite or virus in culture; format: cell-based, Homo sapiens sapiens; conditions: HCoV 229E infection, dose series, max. dose 5 µM; read-out: IC50
# SARS-CoV-2 [5] = format: cell-based; conditions: dose range 0.15 µM to 10 µM, viral genome copies in apical washes and cellular lysates
# SARS-CoV-2 [6] = tested on: SARS-CoV-2
# SARS-CoV-2 [7] = conditions: Calu-3 cells
# Calu-3 cells = conditions: LDH release, non-infected Calu-3 cells, 48 hours of drug treatment
# [8] = tested on: primary human airway epithelial cells; conditions: dose range 0.15 µM to 10 µM, cellular lysates
smiles,measurement,setting,value
Cc1ccccc1N=Nc1ccc(NC(=O)c2ccnn2C)c(C)c1 [CH223191],effect on SARS-CoV-2 infection,SARS-CoV-2 [1],decreased HCoV-229E and SARS-CoV-2 infection
same,effect on HCoV-229E infection,HCoV-229E [2],decreased HCoV-229E and SARS-CoV-2 infection
F/C(COc1ccc2c(c1)[nH]c1ccccc12)=C1/CN2CCC1CC2 [YM-53601],IC50,HCoV-229E [3]; twelve-step 1:3 dilutions,1.61 µM
same,CC50,Huh-7.5/F-Luc/Cas9 cells,28.1 µM
"C=C(CC[C@]12O[C@H](C(=O)O)[C@@](O)(C(=O)O)[C@](C(=O)O)(O1)[C@H](OC(=O)/C=C/[C@@H](C)C[C@@H](C)CC)[C@H]2O)[C@@H](OC(C)=O)[C@H](C)Cc1ccccc1 [Zaragozic Acid A, Zaragozic acid A]",IC50,"HCoV-229E [3]; Human coronavirus 229E, Huh7.5, twelve-step 1:3 dilutions",1.93 µM
same,CC50,in vitro,> 100 µM
"C#CCOc1ccc2c(c1)c(-c1ccc(C(C)C)cc1)nc(=O)n2Cc1ccc(Br)cc1 [AXT-914, reference compound]",IC50,HCoV-229E [4],0.05 µM
same,antiviral activity against SARS-CoV-2 in HAE cells,SARS-CoV-2 [5],dose dependently inhibited SARS-CoV-2 infection
same,CC50 (µM),"Huh-7.5/F-Luc cells; Huh-7.5 cells, dose series, maximum tested dose 5 µM",greater than maximum tested dose
same,% cell viability at max. dose [5 µM],Huh-7.5/F-Luc cells; at max. dose 5 µM,127.46%
same,IC50,SARS-CoV-2 [6],5.65 µM
same,IC90,SARS-CoV-2 [6],21.8 µM
same,SI (CC50/IC50),"SARS-CoV-2 [6]; Calu-3 cells, CC50 from LDH assay / IC50 from qRT-PCR",> 7.08
same,Anti-SARS-CoV-2 screening on Calu-3 cells: viability [% of control],SARS-CoV-2 [7],76.99 % of control
same,total cell numbers,"SARS-CoV-2 [7]; 5 µM, DAPI, relative to DMSO",≥ 75%
same,reduction of infected cell numbers,"SARS-CoV-2 [7]; 5 µM, N protein immunofluorescence, relative to DMSO",more than 50%
same,Anti-SARS-CoV-2 screening on Calu-3 cells: intracellular SARS-CoV-2 infection measured via immunofluorescence imaging [% of control],SARS-CoV-2 [7]; immunofluorescence imaging,20.74 % of control
same,CC50,Calu-3 cells,> 40 µM
same,"cytotoxicity in HAE cells, GAPDH mRNA",[8],without reducing GAPDH mRNA levels
